Assay results as given in PMC8887546, “Design and Synthesis of Brain Penetrant Glycopeptide Analogues of PACAP With Neuroprotective Potential for Traumatic Brain Injury and Parkinsonism” (Frontiers in drug discovery, 2022).

Columns and labels:
[1] = test system: C57BL/6 mice, diffuse TBI; assay: Iba1 microglial skeletal analysis after TBI; type: in vivo, mouse; settings: 10 mg/kg i.p. 30 min prior to TBI, 15 DPI, cortex
Experimental: 30 min prior to TBI or sham injury, mice were randomly assigned to a therapeutic group and received an intraperitoneal injection of 2LS80Mel (10 mg/kg) or sterile saline (0.25 ml). Groups were as follows: TBI-2LS80Mel n = 17; TBI-vehicle n = 17; sham n = 22 (vehicle n = 11, 2LS80Mel n = 11).
For injury induction 24 h post-surgery, mice were re-anesthetized with 5% isoflurane delivered for 3 min. The cap was removed from the injury-hub assembly and the dura was visually inspected through the hub to ensure it was intact with no debris. The hub was then filled with normal saline and attached to an extension tube connected to the male end of the fluid percussion device (Custom Design and Fabrication, Virginia Commonwealth University, Richmond, VA). An injury of moderate severity for our injury model (1.4 atm) was administered by releasing the pendulum onto the fluid-filled cylinder following the return of a toe-pinch response. Sham mice underwent the same procedure except the pendulum was not released. Injured mice were monitored for presence of a forearm fencing response and righting reflex times were recorded as indicators of injury severity ([Hosseini and Lifshitz, 2009]). […] After spontaneously righting, mice were placed in a heated recovery cage and monitored until they were ambulatory (approximately 5–15 min) before being returned to their piezoelectric sleep cage (see below). […]

[2] = test system: Sprague Dawley rats, 6-OHDA lesion; assay: Microglia morphology in substantia nigra, IBA1 skeleton analysis (study 2); type: in vivo, rat; settings: more severe (40%) lesion, treatment vs vehicle, n = 7
Experimental: Rats were treated with 2LS98Lac or saline (vehicle) as outlined in the Schemes in Figures 9A,B via intraperitoneal (i.p.) injection (15 mg/kg). All animals were made hemi-parkinsonian with unilateral, striatal 6-hydroxydopamine (Sigma Aldrich, St. Louis, MO) injections. After surgery, behavioral assessments were done at 2- and 4-weeks post-surgery. 24 h after the last test animals were either euthanized and whole brains were harvested for future biochemical analysis or perfused and brains collected for immunohistochemistry and stereological assessment of tyrosine hydroxylase-positive (TH+) cells remaining in the SNc. In study 1: n = 16 each group were included, and all underwent the behavioral analysis: n = 16, and for the stereology in the SNc, n = 8 each group was used. In study 2: n = 23 each group were included. […] In the 2LS98Lac group, one video at 4 weeks was lost, reducing n = 22 in this specific analysis, and for the stereology, 2 brains were damaged during processing and could not be included in the stereology of the SNc, therefore […]. For biochemical subanalyses, n = 8 each group. For the microglial morphology subanalysis n = 7 each group.
Three coronal brain sections that contained the substantia nigra (SN) were randomly chosen for each animal. For immunofluorescence of microglia free-floating brain sections were first blocked in 10% horse serum (Vector Laboratories, S-2000–20, Burlingame, CA) and buffer solution (0.01 M PBS, 0.05% Triton, and 0.04% NaN3) for 1 h followed by a 72 h incubation with primary antibodies as appropriate: rabbit anti-IBA1 at 1:1,000 (Wako, 019–19741, Madison, WI), mouse anti-TH at 1:2000 (R& D Systems, MAB7566, Minneapolis, MN). […] All incubation steps were performed at room temperature; washes between incubations were with 0.01 M PBS for 15 min. Vectashield (Vector Laboratories, H-1000) was used to coverslip mounted tissue.
Images were acquired on a confocal microscope (Zeiss NLO 880, San Diego, CA) in 3 fields of view within the SN of each intact and lesioned hemisphere using a ×40 objective (473.33 × 473.33 μm area). […] Threshold parameters were consistent for all images, and the percent area of IBA1 immunofluorescence was measured for each image. The number of cell somas was counted in the IBA1 channel, an approximation of the number of cells imaged in each frame, and all percent area data was divided by this cell count.
Ramified microglial morphology was quantified using an objective and computer-aided skeleton analysis method previously described in detail ([Young and Morrison, 2018]). […] Sampling averages were calculated for each animal within each region (intact SN and lesion SN) prior to statistical analyses. […]

Structure (SMILES)	Microglial ramification [1]	% area IBA-1/cell on the lesioned side [2]	Microglial branches/cell on the lesioned side [2]	Microglial endpoints/cell on the lesioned side [2]	Microglial process length/cell on the lesioned side [2]
CC[C@H](C)[C@H](NC(=O)CNC(=O)[C@H](CC(=O)O)NC(=O)[C@H](CO)NC(=O)[C@@H](N)Cc1c[nH]cn1)C(=O)N[C@@H](Cc1ccccc1)C(=O)N[C@H](C(=O)N[C@@H](CC(=O)O)C(=O)N[C@@H](CO)C(=O)N[C@@H](Cc1ccc(O)cc1)C(=O)N[C@@H](CO)C(=O)N[C@@H](CCCNC(=N)N)C(=O)N[C@@H](Cc1ccc(O)cc1)C(=O)N[C@@H](CCCNC(=N)N)C(=O)N[C@@H](CCCCN)C(=O)N[C@@H](CCC(N)=O)C(=O)N[C@@H](CC(C)C)C(=O)N[C@@H](C)C(=O)N[C@H](C(=O)N[C@@H](CCCCN)C(=O)N[C@@H](CCCCN)C(=O)N[C@@H](Cc1ccc(O)cc1)C(=O)N[C@@H](CC(C)C)C(=O)N[C@@H](C)C(=O)N[C@@H](C)C(=O)N[C@H](C(=O)N[C@@H](CC(C)C)C(=O)N[C@@H](CO[C@@H]1O[C@H](CO[C@H]2O[C@H](CO)[C@H](O)[C@H](O)[C@H]2O)[C@@H](O)[C@H](O)[C@H]1O)C(N)=O)C(C)C)C(C)C)[C@@H](C)O [Compound 2LS80Mel]	no significant differences				
[2H]C([2H])([2H])C([2H])(C([2H])([2H])[2H])[C@]([2H])(NC(=O)[C@H](C)NC(=O)[C@H](C)NC(=O)[C@H](CC(C)C)NC(=O)[C@H](Cc1ccc(O)cc1)NC(=O)[C@H](CCCCN)NC(=O)[C@H](CCCCN)NC(=O)[C@@]([2H])(NC(=O)[C@H](C)NC(=O)[C@H](CC(C)C)NC(=O)[C@H](CCC(N)=O)NC(=O)[C@H](CCCCN)NC(=O)[C@H](CCCNC(=N)N)NC(=O)[C@H](Cc1ccc(O)cc1)NC(=O)[C@H](CCCNC(=N)N)NC(=O)[C@H](CO)NC(=O)[C@H](Cc1ccc(O)cc1)NC(=O)[C@H](CO)NC(=O)[C@H](CC(=O)O)NC(=O)[C@@H](NC(=O)[C@H](Cc1ccccc1)NC(=O)[C@@H](NC(=O)CNC(=O)[C@H](CC(=O)O)NC(=O)[C@H](CO)NC(=O)[C@@H](N)Cc1c[nH]cn1)[C@@H](C)CC)[C@@H](C)O)C([2H])(C([2H])([2H])[2H])C([2H])([2H])[2H])C(=O)N[C@@H](CC(C)C)C(=O)N[C@@H](CO[C@@H]1O[C@H](CO)[C@@H](O[C@@H]2O[C@H](CO)[C@H](O)[C@H](O)[C@H]2O)[C@H](O)[C@H]1O)C(N)=O [Compound 2LS98Lac]		significant increase	significant increase	trend toward increase	significant increase
